ChEMBL document CHEMBL4732219, “Synthesis and evaluation of cyclopentane-based muraymycin analogs targeting MraY” (Eur J Med Chem, 2021)
Converted amounts (≈) assume the structure as drawn.

Legend:
[1] = biological target: T1, Phospho-N-acetylmuramoyl-pentapeptide-transferase (Aquifex aeolicus (strain VF5), UniProt O66465); experiment: Inhibition of Aquifex aeolicus MraY using UDP-MurNAc-pentapeptide as substrate measured after 5 mins by UMP-Glo glycosyltransferase assay
T1 sequence (O66465 whole entry): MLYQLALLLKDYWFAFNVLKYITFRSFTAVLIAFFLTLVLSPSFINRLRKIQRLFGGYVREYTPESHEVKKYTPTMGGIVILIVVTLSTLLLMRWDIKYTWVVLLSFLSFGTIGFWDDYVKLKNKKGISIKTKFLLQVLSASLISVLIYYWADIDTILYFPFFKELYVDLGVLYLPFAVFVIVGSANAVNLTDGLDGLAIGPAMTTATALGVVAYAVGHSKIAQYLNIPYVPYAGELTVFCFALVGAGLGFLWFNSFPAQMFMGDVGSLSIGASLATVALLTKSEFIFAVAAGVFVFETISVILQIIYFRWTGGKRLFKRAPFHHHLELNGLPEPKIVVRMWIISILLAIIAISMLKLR

Staphylococcus aureus = experiment: Antibacterial activity against Staphylococcus aureus SA113 assessed as growth inhibition; assay type: functional

CCCCCCCCCCCCCCCCC(=O)N[C@@H](CCCNC(=N)N)C(=O)NCCCN[C@H](C(=O)OC)[C@H](O[C@@H]1O[C@H](CN)[C@@H](O)[C@H]1O)[C@@H]1CC[C@H](n2ccc(=O)[nH]c2=O)C1
IC50 [1]: 75 µM | MIC (Staphylococcus aureus): 54 µg/mL (≈ 60.4 µM)

CC(C)(C)OC(=O)[C@@H](NC(=O)OCc1ccccc1)[C@H](O[C@@H]1O[C@H](CN)[C@@H](O)[C@H]1O)[C@@H]1CC[C@H](n2ccc(=O)[nH]c2=O)C1
IC50 [1]: 340 µM

NC[C@H]1O[C@@H](O[C@H]([C@@H]2CC[C@H](n3ccc(=O)[nH]c3=O)C2)[C@H](NC(=O)OCc2ccccc2)C(=O)O)[C@H](O)[C@@H]1O
IC50 [1]: 500 µM
